# Reference: patent US6525001B1, “Substituted pyrimidine and pyridine herbicides” (Mid-American Commercialization Corporation, priority 1997, dated 2003)
# Key:
# Assay in all cases: Test B pre-/postemergence
# Format in all cases: in vivo
# Set-up in all cases: key: 0 is no effect; 10 is complete control
# [1] = test system: momingglory (Ipomoea hederacea)
# Outline: (§1)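 Compounds in a surfactant-containing, non-phytotoxic solvent blend are applied to freshly planted seed (preemergence) and, concurrently, to seedlings of 2 to 18 cm at 1–4 leaves (postemergence). Plants stay in the greenhouse twelve to sixteen days and are then scored visually from 0 (no effect) to 10 (complete control).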
# [2] = test system: giant foxtail (Setaria faberii)
# Outline: as §1
# [3] = test system: broadleaf signalgrass (Brachiaria decumbens)
# Outline: as §1
# [4] = test system: blackgrass (Alopecurus myosuroides)
# Outline: as §1
# [5] = test system: cocklebur (Xanthium strumarium); settings: for Plant response rating, Cocklebur: Postemergence
# Outline: as §1
# [6] = test system: velvetleaf (Abutilon theophrasti)
# Outline: as §1
# [7] = test system: pigweed (Amaranthus retroflexus)
# Outline: as §1
# [8] = test system: bedstraw (Galium aparine)
# Outline: as §1
# [9] = test system: wheat (Triticum aestivum)
# Outline: as §1
# [10] = test system: sugar beet (Beta vulgaris)
# Outline: as §1
# wild oat (Avena fatua) = test system: wild oat (Avena fatua)
# Outline: as §1
# [11] = test system: crabgrass (Digitaria sanguinalis)
# Outline: as §1
# [12] = test system: purple nutsedge (Cyperus rotundus)
# Outline: as §1
# corn (Zea mays) = test system: corn (Zea mays)
# Outline: as §1
compound,measurement,setting,value
Cc1cnc(-c2ccc(C(F)(F)F)cc2)nc1Cc1cccc(OC(F)(F)F)c1 [Compound 15],"Plant response rating, Morningglory","[1]; Rate 62 g/ha, Postemergence",8
same,Morningglory plant response rating,"[1]; Rate 62 g/ha, Preemergence",4
same,"Plant response rating, Morningglory","[1]; Rate 125 g/ha, Postemergence",8
same,Morningglory plant response rating,"[1]; Rate 125 g/ha, Preemergence",7
same,"Plant response rating, Morningglory","[1]; Rate 250 g/ha, Postemergence",9
same,"Plant response rating, Morningglory","[1]; Rate 250 g/ha, Preemergence",9
same,"Plant response rating, Giant foxtail","[2]; Rate 62 g/ha, Postemergence",7
same,Giant foxtail plant response rating,"[2]; Rate 62 g/ha, Preemergence",10
same,"Plant response rating, Giant foxtail","[2]; Rate 125 g/ha, Postemergence",7
same,Giant foxtail plant response rating,"[2]; Rate 125 g/ha, Preemergence",10
same,"Plant response rating, Giant foxtail","[2]; Rate 250 g/ha, Postemergence",8
same,"Plant response rating, Giant foxtail","[2]; Rate 250 g/ha, Preemergence",10
same,"Plant response rating, B. signalgrass","[3]; Rate 62 g/ha, Postemergence",4
same,B. signalgrass plant response rating,"[3]; Rate 62 g/ha, Preemergence",9
same,"Plant response rating, B. signalgrass","[3]; Rate 125 g/ha, Postemergence",4
same,B. signalgrass plant response rating,"[3]; Rate 125 g/ha, Preemergence",9
same,"Plant response rating, B. signalgrass","[3]; Rate 250 g/ha, Postemergence",8
same,"Plant response rating, B. signalgrass","[3]; Rate 250 g/ha, Preemergence",9
same,"Plant response rating, Blackgrass","[4]; Rate 62 g/ha, Postemergence",6
same,Blackgrass plant response rating,"[4]; Rate 62 g/ha, Preemergence",9
same,"Plant response rating, Blackgrass","[4]; Rate 125 g/ha, Postemergence",9
same,Blackgrass plant response rating,"[4]; Rate 125 g/ha, Preemergence",10
same,"Plant response rating, Blackgrass","[4]; Rate 250 g/ha, Postemergence",9
same,"Plant response rating, Blackgrass","[4]; Rate 250 g/ha, Preemergence",10
same,"Plant response rating, Cocklebur",[5]; Rate 62 g/ha,9
same,"Plant response rating, Cocklebur",[5]; Rate 125 g/ha,9
same,Cocklebur plant response rating,"[5]; Rate 125 g/ha, Preemergence",1
same,"Plant response rating, Cocklebur",[5]; Rate 250 g/ha,10
same,"Plant response rating, Velvetleaf","[6]; Rate 62 g/ha, Postemergence",5
same,Velvetleaf plant response rating,"[6]; Rate 62 g/ha, Preemergence",4
same,"Plant response rating, Velvetleaf","[6]; Rate 125 g/ha, Postemergence",8
same,Velvetleaf plant response rating,"[6]; Rate 125 g/ha, Preemergence",7
same,"Plant response rating, Velvetleaf","[6]; Rate 250 g/ha, Postemergence",8
same,"Plant response rating, Velvetleaf","[6]; Rate 250 g/ha, Preemergence",7
same,"Plant response rating, Redroot pigweed","[7]; Rate 62 g/ha, Postemergence",9
same,Redroot pigweed plant response rating,"[7]; Rate 62 g/ha, Preemergence",6
same,"Plant response rating, Redroot pigweed","[7]; Rate 125 g/ha, Postemergence",9
same,Redroot pigweed plant response rating,"[7]; Rate 125 g/ha, Preemergence",10
same,"Plant response rating, Redroot pigweed","[7]; Rate 250 g/ha, Postemergence",9
same,"Plant response rating, Redroot pigweed","[7]; Rate 250 g/ha, Preemergence",10
same,"Plant response rating, Bedstraw","[8]; Rate 62 g/ha, Postemergence",9
same,Bedstraw plant response rating,"[8]; Rate 62 g/ha, Preemergence",6
same,"Plant response rating, Bedstraw","[8]; Rate 125 g/ha, Postemergence",9
same,Bedstraw plant response rating,"[8]; Rate 125 g/ha, Preemergence",8
same,"Plant response rating, Bedstraw","[8]; Rate 250 g/ha, Postemergence",9
same,"Plant response rating, Bedstraw","[8]; Rate 250 g/ha, Preemergence",8
same,"Plant response rating, Wheat","[9]; Rate 62 g/ha, Postemergence",4
same,Wheat plant response rating,"[9]; Rate 62 g/ha, Preemergence",2
same,"Plant response rating, Wheat","[9]; Rate 125 g/ha, Postemergence",4
same,Wheat plant response rating,"[9]; Rate 125 g/ha, Preemergence",4
same,"Plant response rating, Wheat","[9]; Rate 250 g/ha, Postemergence",6
same,"Plant response rating, Wheat","[9]; Rate 250 g/ha, Preemergence",7
same,"Plant response rating, Sugarbeets","[10]; Rate 62 g/ha, Postemergence",9
same,Sugarbeets plant response rating,"[10]; Rate 62 g/ha, Preemergence",10
same,"Plant response rating, Sugarbeets","[10]; Rate 125 g/ha, Postemergence",9
same,Sugarbeets plant response rating,"[10]; Rate 125 g/ha, Preemergence",10
same,"Plant response rating, Sugarbeets","[10]; Rate 250 g/ha, Postemergence",10
same,"Plant response rating, Sugarbeets","[10]; Rate 250 g/ha, Preemergence",10
same,"Plant response rating, Wild oats","wild oat (Avena fatua); Rate 62 g/ha, Postemergence",6
same,Wild oats plant response rating,"wild oat (Avena fatua); Rate 62 g/ha, Preemergence",8
same,"Plant response rating, Wild oats","wild oat (Avena fatua); Rate 125 g/ha, Postemergence",7
same,Wild oats plant response rating,"wild oat (Avena fatua); Rate 125 g/ha, Preemergence",9
same,"Plant response rating, Wild oats","wild oat (Avena fatua); Rate 250 g/ha, Postemergence",9
same,"Plant response rating, Wild oats","wild oat (Avena fatua); Rate 250 g/ha, Preemergence",9
same,"Plant response rating, Crabgrass","[11]; Rate 62 g/ha, Postemergence",9
same,Crabgrass plant response rating,"[11]; Rate 62 g/ha, Preemergence",9
same,"Plant response rating, Crabgrass","[11]; Rate 125 g/ha, Postemergence",9
same,Crabgrass plant response rating,"[11]; Rate 125 g/ha, Preemergence",10
same,"Plant response rating, Crabgrass","[11]; Rate 250 g/ha, Postemergence",9
same,"Plant response rating, Crabgrass","[11]; Rate 250 g/ha, Preemergence",10
same,"Plant response rating, Nutsedge","[12]; Rate 62 g/ha, Postemergence",0
same,Nutsedge plant response rating,"[12]; Rate 62 g/ha, Preemergence",0
same,"Plant response rating, Nutsedge","[12]; Rate 125 g/ha, Postemergence",2
same,Nutsedge plant response rating,"[12]; Rate 125 g/ha, Preemergence",0
same,"Plant response rating, Nutsedge","[12]; Rate 250 g/ha, Postemergence",2
same,"Plant response rating, Nutsedge","[12]; Rate 250 g/ha, Preemergence",2
same,"Plant response rating, Corn","corn (Zea mays); Rate 62 g/ha, Postemergence",3
same,Corn plant response rating,"corn (Zea mays); Rate 62 g/ha, Preemergence",1
same,"Plant response rating, Corn","corn (Zea mays); Rate 125 g/ha, Postemergence",4
same,Corn plant response rating,"corn (Zea mays); Rate 125 g/ha, Preemergence",1
same,"Plant response rating, Corn","corn (Zea mays); Rate 250 g/ha, Postemergence",5
same,"Plant response rating, Corn","corn (Zea mays); Rate 250 g/ha, Preemergence",2
